Source: patent publication US8349862B2, “Pyridine derivatives for the treatment of metabolic disorders related to insulin resistance or hyperglycemia” (Piramal Healthcare Limited, priority 2006, dated 2013)
“And” between values parts separate entries of the source, which are not always exact repeats. Identical values can stand only once.

Experiments:
[1] = test system: insulin resistant adipocytes (differentiated 3T3 L1 fibroblasts); experiment: In vitro model exhibiting insulin resistance: 14C-2-deoxyglucose uptake in dexamethasone-treated adipocytes; assay type: cell-based; details: test compound 10 μM/mL, Rosiglitazone 0.1 μM; for Fold Vehicle (fold activity over vehicle, glucose uptake): vehicle = 1.0, cut off for activity 1.50 fold
Protocol: The assay was designed as in reference, British Journal of Pharmacology, 130, 351-58, 2000, the disclosure of which is incorporated by reference for the teaching of the assay. The solution of test compound (10 μM/mL) was prepared in DMSO. […] Differentiation into adipocytes was induced by known methods as described below. (J. Biol. […] 3T3 L1 fibroblasts were seeded in 24- or 6-well plates at a density of 0.5-2×10^4 cells/well and were allowed to reach maximal confluency. The confluent fibroblasts were exposed to culture medium for 2 days. […] The mature adipocytes were exposed to dexamethasone, 100 nM added in ethanol, in culture medium and incubated for 2 days. […] The test compound was also present during this period. After 3-4 hours, the medium was aspirated and replaced with Kreb's Ringer phosphate (KRP) buffer at pH 7.4 and with human/porcine insulin, 200 nM. The cells were incubated for 30 minutes at 37° C. […] After exactly 5 minutes, the plates were transferred to ice trays and medium was rapidly aspirated. The cell layer was washed twice with ice-cold phosphate buffered saline, (PBS), pH 7.4. […] Non-specific glucose uptake was assayed in wells exposed to cytochalasin B, inhibitor of glucose transport. […] Statistical analysis was performed using unpaired t-test.

lean C57Bl6/J mice = experiment: Evaluation of antiobesity, acute study: food intake in fasted lean mice; assay type: in vivo; details: 100 mg/kg intraperitoneally, 2 hours after food introduction, p<0.001 vs vehicle
Excerpt: The effect of standard (Sibutramine), Compound 1 and Compound 11 on food intake in lean C57Bl6/J mice at 2, 4, 6 and 24 hrs post-food introductions is indicated.
The assay was designed as in reference, PCT publication WO 2003086306, the disclosure of which is incorporated by reference for the teaching of the assay.
Male C57Bl6/J mice, weighing 20-25 g, were housed individually in the animal facility. Water and Chow (Amrut Laboratory Animal feed, Sangli, Maharashtra, India) were available ad libitum. One day before the study, the animals were weighed and separated into treatment groups having similar average body weight. For the experiment, the animals were deprived of food overnight for 16 hours. They were dosed intraperitoneally with test compounds (100 mg/kg) or comparator standard (Sibutramine, 3 mg/kg) in saline vehicle (10 mL/kg). Half an hour after drug administration the animals were presented with a pre-weighed amount of food in the food cup. Food that remained in the cup was measured at various time points. The effect of standard, and test compounds on food intake in fasted lean C57Bl6/J mice at 2, 4, 6 and 24 hrs post-food introductions was evaluated. […] (*** p<0.001 vs vehicle treated controls) (b) Chronic Study

[2] = test system: genetically diabetic db/db BL/6J mice; experiment: Screening in db/db BL/6J mice: reduction of plasma glucose; assay type: in vivo; details: 10 days
Protocol: The protocol was designed as in references. • 1.
The screening of compounds was based on their ability to reduce the plasma glucose levels in genetically diabetic db/db BL/6J mice.
Male db/db mice (obtained from the Animal House of Nicholas Piramal Research Centre, Goregaon, Mumbai, India) were used for this study (body weight in the range of 30-40 g and age is 6-8 weeks) and were kept eight per cage in individually ventilated cages at controlled temperature (22±1° C.) and humidity (45±5%). Food and water were provided ad libitum during their laboratory stay, except for four hours fasting prior to blood sample collection. 12 hours light and dark cycle was followed during the whole study period.
After 4 hours fasting blood samples were collected from mice. Mice showing plasma glucose levels between 300 to 500 mg/dl were divided in groups (8-10 per group) such that the mean plasma glucose levels and variation within the group, for each group, is nearly the same. After grouping, mice in respective groups received treatment with 0.5% CMC vehicle, standard compound or test compounds for 10 days.
After 4 hours fasting, mice were anaesthetized using isoflurane (inhalation anesthetic), and blood samples were collected through the retro orbital plexus. Collected blood samples were centrifuged at 7000 rpm for 10 minutes at 4° C.; Separated plasma was used for estimation of plasma glucose using diagnostic kits (Diasys, Germany). Plasma glucose levels of treated groups were normalized with control group using the following formula, which accounted for the changes in control group.
Formula used for normalization was *: {1−(Ratio of mean plasma glucose levels of control group on day 10 to day 0)/(Ratio of plasma glucose levels of treated group on day 10 to day 0)}×100.

Row | SMILES | % of Rosiglitazone (comparison with Rosiglitazone, glucose uptake) [1] [%] | Fold Vehicle (fold activity over vehicle, glucose uptake) [1] | Inhibition of food intake (lean C57Bl6/J mice) | Normalization with control (plasma glucose reduction) ([2]; 100 mpk bid) | Normalization with control (plasma glucose reduction) ([2]; Rosiglitazone 5 mpk bid)
1 | COc1ccc(OC)c(S(=O)(=O)Nc2cnc(Oc3ccc(N4CCN(C(C)=O)CC4)cc3)c(Cl)c2)c1 [Compound 4, N-(6-(4-(4-Acetylpiperazin-1-yl)phenoxy)-5-chloropyridin-3-yl)-2,5-dimethoxy-benzenesulfonamide] | 41.33 | 1.55 ± 0.03 | – | – | –
2 | CC(=O)N1CCN(c2ccc(Oc3ncc(NS(=O)(=O)c4ccc(C(F)(F)F)cc4Cl)cc3Cl)cc2)CC1 [Compound 5, N-(6-(4-(4-Acetylpiperazin-1-yl)phenoxy)-5-chloropyridin-3-yl)-2-chloro-4-(trifluoromethyl)benzenesulfonamide] | 63.94 | 1.85 ± 0.04 | – | – | –
3 | CC(=O)N1CCN(c2ccc(Oc3ncc(NS(=O)(=O)c4ccc(Cl)c(Cl)c4)cc3Cl)cc2)CC1 [Compound 6, N-(6-(4-(4-Acetylpiperazin-1-yl)phenoxy)-5-chloropyridin-3-yl)-3,4-dichlorobenzene-sulfonamide] | 69.76 | 1.93 ± 0.06 | – | – | –
4 | O=S(=O)(Nc1cnc(Oc2ccc(N3CCNCC3)cc2)c(Cl)c1)c1ccc(Cl)cc1Cl [Compound 11, 2,4-Dichloro-N-(5-chloro-6-(4-(piperazin-1-yl)phenoxy)pyridin-3-yl)benzene sulfonamide] | – | – | effective in inhibiting food intake | – | –
5 | CC(=O)N1CCN(c2ccc(Oc3ncc(NC(=O)CCC(=O)O)cc3Cl)cc2)CC1 [Compound 14, 4-(6-(4-(4-Acetylpiperazin-1-yl)phenoxy)-5-chloropyridin-3-ylamino)-4-oxobutanoic acid] | 27.5 | 1.49 ± 0.05 | – | Inactive | –
6 | O=S(=O)(Nc1cnc(Oc2ccccc2-c2nc3ccccc3s2)c(Cl)c1)c1ccc(Cl)cc1Cl [Compound 15, N-(6-(2-(Benzo[d]thiazol-2-yl)phenoxy)-5-chloropyridin-3-yl)-2,4-dichlorobenzene-sulfonamide] | 36.7 | 2.0 ± 0.13 | – | – | –
7 | CN(CCOc1ccc(CC2SC(=O)NC2=O)cc1)c1ccccn1 (stereo not shown) [Rosiglitazone, reference compound] | – | – | – | – | 55.73 ± 4.46 and 53.34 ± 4.11
